Results on two sequences are retold here after patent US20030217389A1, “Novel peptides and methods of use” (priority 2002, published 2003).

The test system of assay [1] is Tobacco suspension cells. Kind of assay: Plant cell culture alkalinization assay. The class given is cell-based. Here is the method: Plant Cell Culture Alkalinization Assay: Tobacco suspension cells were maintained in MS media. The media was adjusted to pH 5.6 with KOH. Three ml aliquots of one week old cultures were transferred into 35 ml of media in 125 ml flasks and placed on an orbital shaker at 160 rpm in the dark for growth. Cells were used for assay 3-5 days after transfer (cell density was approximately 0.5 to 1.5×10^6 cells/ml). One ml of cells was aliquoted into each well of 24-well cell culture cluster plates (Costar, number 3527, Corning Incorporated, Corning, N.Y.) and allowed to equilibrate on an orbital shaker at 160 rpm for 1 hr. Aliquots (1 to 10 μl) of fractions to be tested were added to the cells and the increasing pH change of the medium (medium alkalinization) was detected with time using an Orion Model EA940 pH meter with an Orion semi-micro pH electrode (Catalog number 8103BN, Orion, Beverly, Mass.).

Assay [2] relates to liquid tomato cell culture. Briefly: Alkalinization of a liquid tomato cell culture. The class given is cell-based.
The test system of assay [3] is tomato apical meristems. Briefly: Growth of excised tomato apical meristems in liquid culture. The class given is cell-based, Lycopersicon esculentum. Conditions: for growth of isolated tomato apical meristems: 100 nM peptide in liquid media, evaluated on the 16th day, compared with control peptide. The method, then: Tomato plants (Lycopersicon esculentum cv. Castlemart) were grown in a growth chamber with 17 hours of light (300 μmol m^−2s^−1) per day at 28° C. and seven hour nights at 18° C. Apical meristems were excised from shoot tips of two week old tomato plants. Shoot tips (1-2 cm long) were surface sterilized using 70% ethanol solution for 20-30 seconds, followed by a 20 minute incubation in a 1.5% (v/v) commercial bleach solution. Shoot tips were washed once in sterilized water after the ethanol treatment, and four times after bleaching. Apical meristems (including meristematic tissue, dome, with a leaf primordium) were carefully isolated under a stereoscope.
Isolated meristems were immediately inoculated into a liquid media (MS salts and vitamin mixture powder (Life Technologies) and 20 g/L of sucrose) containing either tomato RALF (100 nM) (SEQ ID NO: 4), or a control peptide (100 nM) that was not capable of stimulating meristem growth. Four meristems were inoculated in a 125 mL Erlenmeyer flask containing 10 mL of media, and flasks were gently shaken at 60 rpm. Sixteen meristems were tested for each treatment in four separate flasks. The liquid media was replaced with fresh media on the 5th, 12th and 14th days of the experiment. The experiment was evaluated and terminated on the 16th day.

For the sequence “ATKKYISYGALQKNSVPCSRRGASYYNCKPGAQANPYSRGCSAITRCRS (listed as Nicotiana tabacum) [tobacco RALF polypeptide, approximately 5 kDa polypeptide isolated from tobacco leaves]”, the “alkalinization of the medium of the liquid plant cell culture (pH change)” value in assay [1] is listed as “rapidly induced alkalinization”.

As to “ATKKYISYGALQKNSVPCSRRGASYYNCKPGAQANPYTRGCSAITRCRS (listed as Lycopersicon esculentum) [tomato RALF polypeptide (SEQ ID NO: 4), chemically synthesized tomato RALF polypeptide]”, the “alkalinization of a liquid tomato cell culture” value in assay [2] is “induce alkalinization”. Further, the “growth of isolated tomato apical meristems” value in assay [3] is “stimulates the growth”; in assay [3] (listed as tomato RALF (SEQ ID NO: 4)), “stimulated growth”. Besides, the “rate of meristem tissue growth in the presence versus the absence of the polypeptide” value in assay [3] (experiments of Example 3) was “at least twice as fast”.
